From US8530665B2 (Eli Lilly and Company, priority 2010, dated 2013) come the findings set out here.

The subject of test [1] is FGF9 induced ERK phosphorylation in Human RT112 bladder carcinoma cells. The test is described as follows: FGF9 induced p-ERK with BSA in RT112 cells. To be noted: RT-112, read-out: IC50 FGF9 induced p-ERK.
Protocol: FGF9 Induced p-ERK with BSA
This yielded a 10 point dose-response curve ranging from 10-0.005 μM in 1% DMSO. The incubation is continued for 1 hour at 37° C. […] Cells are fixed by the addition of 30 μL of a 25% formaldehyde solution in phosphate buffered saline (PBS) (3.7% formaldehyde final concentration), and incubated 30 minutes at RT. Cells are washed 3× with PBS, followed by the addition of 100 μL of cold methanol and incubated for 30 minutes at −20° C. The methanol is removed and the cells are treated with PBS containing 0.1% TRITON® X-100(PBST), washed 3× with PBS, and incubated 15 minutes at RT.
Test [2] deals with FGF receptor 1 (bFGF induced ERK phosphorylation in HUVEC). The test is described as follows: AlphaScreen SureFire Detection of ERK phosphorylation (Thr202/Tyr204) in HUVEC. The following applies: Homo sapiens, read-out: IC50 b-FGF induced ERK phosphorylation (Thr202/Tyr204). For orientation: Bead proximity is the source of the signal in Alpha formats.
Protocol: AlphaScreen SureFire Detection of ERK Phosphorylation (Thr202/Tyr204) in Human Umbilical Vein Endothelial Cells (HUVEC)
The effect of compound on the inhibition of FGF receptor 1 is measured by monitoring the phosphorylation of ERK (pERK) in response to basic-Fibroblast growth factor (b-FGF) stimulation in Human Umbilical Endothelial cells (HUVEC). […] This is a homogeneous assay format utilizing the immuno-sandwich capture of the phosphorylated analyte followed by detection using antibody-coated ALPHASCREEN® beads (Perkin Elmer) to generate an amplified signal.
For the assay, cells are harvested by standard procedures and then counted. […] Plates are incubated overnight at 37° C., 5% CO2.
On the day of the assay, cells are serum starved in 100 μL EBM (endothelial cell basal) medium containing 1.5% FBS and 20 mg/mL BSA for 3 hours at 37° C., 5% CO2, then treated with 20 μM of 3× serially diluted compound in starvation medium for 1 hour at 37° C. This yielded a 10 point concentration-response curve ranging from 10-0.005 μM in 1% DMSO. After 1 hour compound treatment, cells are stimulated with 50 μL b-FGF (Sigma, F0291, final b-FGF concentration 50 ng/mL) at 37° C. for 15 minutes. In the wells containing cells and 50 μL stimulator b-FGF yields MAX signal, and cells with 10 μM positive control compound and 50 μL stimulator b-FGF as MIN. […]

Molecules are shown by their SMILES.

For the compound `C[C@@H](Oc1ccc2[nH]nc(/C=C/c3cnn(CCO)c3)c2c1)c1c(Cl)cncc1Cl` [Preparation 10, (R)-(E)-2-(4-(2-(5-(1-(3,5-Dichloropyridin-4-yl)ethoxy)-1H-indazol-3-yl)vinyl)-1H-pyrazol-1-yl)ethanol], the IC50 in test [1] was 0.4 nM; in test [2], 0.6 nM.
